Key:
Hepatitis C virus [1] = experiment: Antiviral activity against HCV 1b after 72 hrs by replicon assay in presence of HSA and AAG; assay type: functional, organism-based, Hepacivirus hominis; conditions: genotype 1b
Hepatitis C virus [2] = experiment: Antiviral activity against HCV 1b after 72 hrs by replicon assay; assay type: functional, organism-based, Hepacivirus hominis; conditions: genotype 1b
Hepatitis C virus [3] = experiment: Inhibition of HCV1b Cdelta-21-truncated NS5B by enzymatic assay; assay type: functional, Hepatitis C virus subtype 1b
[4] = Half life in rat at 4 mg/kg, po and 4 mg/kg, iv; assay type: ADME, organism-based; conditions: in vivo
[5] = Bioavailability in rat at 4 mg/kg, po and 4 mg/kg, iv; assay type: ADME, organism-based; conditions: in vivo
Homo sapiens = species: Homo sapiens; experiment: Protein binding in human plasma by equilibrium dialysis; conditions: read-out: PPB (converted)
Cytochrome P450 2C9 = Cytochrome P450 2C9 (Homo sapiens, UniProt P11712); experiment: Inhibition of CYP2C9; assay type: ADME
Chain of Cytochrome P450 2C9 (P11712 whole entry): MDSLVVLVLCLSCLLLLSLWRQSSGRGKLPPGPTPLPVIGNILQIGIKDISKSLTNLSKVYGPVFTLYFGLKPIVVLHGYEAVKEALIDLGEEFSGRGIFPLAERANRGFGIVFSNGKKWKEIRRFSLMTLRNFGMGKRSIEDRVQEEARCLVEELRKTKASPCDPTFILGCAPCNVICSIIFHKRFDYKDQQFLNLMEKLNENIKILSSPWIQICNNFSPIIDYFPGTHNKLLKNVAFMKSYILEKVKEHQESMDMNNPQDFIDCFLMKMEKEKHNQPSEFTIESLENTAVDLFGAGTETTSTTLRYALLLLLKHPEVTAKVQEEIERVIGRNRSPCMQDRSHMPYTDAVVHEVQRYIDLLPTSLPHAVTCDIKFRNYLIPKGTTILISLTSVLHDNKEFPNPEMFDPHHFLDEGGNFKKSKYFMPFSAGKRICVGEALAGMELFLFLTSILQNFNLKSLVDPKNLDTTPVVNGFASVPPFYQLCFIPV

SMILES	IC50 (Hepatitis C virus [1]) [nM]	IC50 (Hepatitis C virus [2]) [nM]	IC50 (Hepatitis C virus [3]) [nM]	half-life [4] [h]	bioavailability [5] [%]	fraction unbound (Homo sapiens)	IC50 (Cytochrome P450 2C9) [nM]
CC(C)CCn1c(=O)c(C2=NS(=O)(=O)c3cc(CCN)ccc3N2)c(O)c2ccccc21		568	142				
CC(C)CCn1c(=O)c(C2=NS(=O)(=O)c3cc(Cl)ccc3N2)c(O)c2ccccc21	> 50000	2320	76				
CC(C)CCn1c(=O)c(C2=NS(=O)(=O)c3cc(Br)ccc3N2)c(O)c2ccccc21		5140	173				
CC(=O)c1ccc2c(c1)S(=O)(=O)N=C(c1c(O)c3ccccc3n(CCC(C)C)c1=O)N2		5200	127				
COC(=O)c1ccc2c(c1)S(=O)(=O)N=C(c1c(O)c3ccccc3n(CCC(C)C)c1=O)N2		2620	65				
CC(C)CCn1c(=O)c(C2=NS(=O)(=O)c3cc(C(=O)O)ccc3N2)c(O)c2ccccc21		> 20000	45				
CC(C)CCn1c(=O)c(C2=NS(=O)(=O)c3cc(C(N)=O)ccc3N2)c(O)c2ccccc21		383	6				
CC(C)CCn1c(=O)c(C2=NS(=O)(=O)c3cc(I)ccc3N2)c(O)c2ccccc21			> 10000				
CC(C)CCn1c(=O)c(C2=NS(=O)(=O)c3cc(C#N)ccc3N2)c(O)c2ccccc21		486	57				
Cc1ccc2c(c1)S(=O)(=O)N=C(c1c(O)c3ccccc3n(CCC(C)C)c1=O)N2		1780	50				
CC(C)CCn1c(=O)c(C2=NS(=O)(=O)c3cc(CCN(C)C)ccc3N2)c(O)c2ccccc21			685				
CC(C)CCn1c(=O)c(C2=NS(=O)(=O)c3cc(C(=O)N(C)C)ccc3N2)c(O)c2ccccc21		> 20000	102				
CC(C)CCn1c(=O)c(C2=NS(=O)(=O)c3cc(O)ccc3N2)c(O)c2ccccc21		> 20000	30				
CC(C)CCn1c(=O)c(C2=NS(=O)(=O)c3cc([N+](=O)[O-])ccc3N2)c(O)c2ccccc21		> 20000	238				
CC(C)CCn1c(=O)c(C2=NS(=O)(=O)c3cc(OCC#N)ccc3N2)c(O)c2ccccc21		81	7				
COC(=O)Cc1ccc2c(c1)S(=O)(=O)N=C(c1c(O)c3ccccc3n(CCC(C)C)c1=O)N2		815	23				
CC(C)CCn1c(=O)c(C2=NS(=O)(=O)c3cc(N)ccc3N2)c(O)c2ccccc21	45000	218	13				
CC(C)CCn1c(=O)c(C2=NS(=O)(=O)c3cc(N(C)C)ccc3N2)c(O)c2ccccc21		1250	142				
COc1ccc2c(c1)S(=O)(=O)N=C(c1c(O)c3ccccc3n(CCC(C)C)c1=O)N2		1390	55				

The next lines start with the values.

IC50 (Hepatitis C virus [1]) [nM]	IC50 (Hepatitis C virus [2]) [nM]	IC50 (Hepatitis C virus [3]) [nM]	half-life [4] [h]	bioavailability [5] [%]	fraction unbound (Homo sapiens)	IC50 (Cytochrome P450 2C9) [nM]	SMILES
8000	29	5					CC(C)CCn1c(=O)c(C2=NS(=O)(=O)c3cc(CC#N)ccc3N2)c(O)c2cc(F)ccc21
2650	15	6					CC(C)CCn1c(=O)c(C2=NS(=O)(=O)c3cc(CC(N)=O)ccc3N2)c(O)c2ccccc21
50000	57	< 5					O=c1c(C2=NS(=O)(=O)c3cc(O)ccc3N2)c(O)c2cc(F)ccc2n1CCC1CC1
> 50000	342	24					COc1ccc2c(c1)S(=O)(=O)N=C(c1c(O)c3cc(F)ccc3n(CCC3CC3)c1=O)N2
	334	26					CC(C)CCn1c(=O)c(C2=NS(=O)(=O)c3cc(F)ccc3N2)c(O)c2ccccc21
> 50000	208	5					NC(=O)CCc1ccc2c(c1)S(=O)(=O)N=C(c1c(O)c3cc(F)ccc3n(CCC3CC3)c1=O)N2
	48	36					NC(=O)OCc1ccc2c(c1)S(=O)(=O)N=C(c1c(O)c3cc(F)ccc3n(CCC3CC3)c1=O)N2
3100	13	18					CC(C)CCn1c(=O)c(C2=NS(=O)(=O)c3cc(CC(N)=O)ccc3N2)c(O)c2cc(F)ccc21
4740	9	< 5					CNC(=O)COc1ccc2c(c1)S(=O)(=O)N=C(c1c(O)c3cc(F)ccc3n(CCC3CC3)c1=O)N2
	211	12					CN(C)C(=O)COc1ccc2c(c1)S(=O)(=O)N=C(c1c(O)c3cc(F)ccc3n(CCC3CC3)c1=O)N2
1480	2	< 5	1	33	0.001	5400	NC(=O)COc1ccc2c(c1)S(=O)(=O)NC(c1c(O)c3cc(F)ccc3n(CCC3CC3)c1=O)=N2
50000	39	202					NC(=O)/C=C/c1ccc2c(c1)S(=O)(=O)N=C(c1c(O)c3cc(F)ccc3n(CCC3CC3)c1=O)N2
	3740	22					CC(C)(Oc1ccc2c(c1)S(=O)(=O)N=C(c1c(O)c3cc(F)ccc3n(CCC3CC3)c1=O)N2)C(=O)O
5360	272	9					CC(C)(Oc1ccc2c(c1)S(=O)(=O)N=C(c1c(O)c3cc(F)ccc3n(CCC3CC3)c1=O)N2)C(N)=O
2390	8	< 5					N#CCOc1ccc2c(c1)S(=O)(=O)N=C(c1c(O)c3cc(F)ccc3n(CCC3CC3)c1=O)N2
	2000	6					O=c1c(C2=NS(=O)(=O)c3cc(OCn4cnnn4)ccc3N2)c(O)c2cc(F)ccc2n1CCC1CC1
1020	3	< 5	0.7	35	0.002	1700	C[C@@H](Oc1ccc2c(c1)S(=O)(=O)N=C(c1c(O)c3cc(F)ccc3n(CCC3CC3)c1=O)N2)C(N)=O
50000	4	12					C[C@H](Oc1ccc2c(c1)S(=O)(=O)N=C(c1c(O)c3cc(F)ccc3n(CCC3CC3)c1=O)N2)C(N)=O
	1600	8					CC(C)CCn1c(=O)c(C2=NS(=O)(=O)c3cc(CC(=O)O)ccc3N2)c(O)c2ccccc21
	233	17					O=c1c(C2=NS(=O)(=O)c3cc(CO)ccc3N2)c(O)c2cc(F)ccc2n1CCC1CC1
	2300	< 5					O=C(O)COc1ccc2c(c1)S(=O)(=O)N=C(c1c(O)c3cc(F)ccc3n(CCC3CC3)c1=O)N2
24500	38		3	44		840	O=c1c(C2=Nc3ccccc3S(=O)(=O)N2)c(O)c2cc(F)ccc2n1CCC1CC1
